Experimental data published in patent US6916802B2, “Amino ceramide-like compounds and therapeutic methods of use” (Genzyme Corporation, priority 2002, dated 2005).
Values joined by “and” are separate entries in the source; they are usually repeats but may differ in a detail not shown here. Equal entries are not always repeated. Marks after values point to notes of the source that are not given here.

Assays:
[1] = test system: GlcCer synthase of MDCK cell homogenates; test: Inhibition of ceramide glucosyltransferase (GlcCer synthase) of MDCK cell homogenates; type: biochemical, canine; conditions: for % Inhibition at 80 μM: 80 μM inhibitor; for % Inhibition at 80 μM / Inhibition at 5 μM: triplicate ± SD, samples partly isomer mixtures; for Inhibition at 5 μM: 5 μM inhibitor; for inhibition of GlcCer synthase by nonionic ceramide-like compounds: 20 μM
Protocol: Assay of sphingolipid enzymes. The inhibitors were evaluated for their effectiveness against the GlcCer synthase of MDCK cell homogenates by incubation in a thermostatted ultrasonic bath (Radin N. S. et al., “Ultrasonic Baths as Substitutes for Shaking Incubator Baths,” Enzyme, 45:67-70 (1991)) with octanoyl sphingosine and uridinediphospho[^3H]glucose (Shukla, G. S. et al., “Glucosylceramide Synthase of Mouse Kidney: Further Characterization and Improved Assay Method,” Arch. Biochem. Biophys., 283:372-378 (1990)). The lipoidal substrate (85 μg) was added in liposomes made from 0.57 mg dioleoylphosphatidylcholine and 0.1 mg of Na sulfatide. Confluent cells were washed, then homogenized with a micro-tip sonicator at 0° C. for 3×30 sec; ˜0.2 mg of protein was used in each assay tube. In the case of the aromatic inhibitors, the test compound was simply evaporated to dryness from solution in the incubation tube. […] The aliphatic inhibitors, which appeared to be less soluble in water, were added as part of the substrate liposomes.

[2] = test system: 9L brain gliosarcoma cells; test: Tumor cell growth in vitro (sulforhodamine B), 9L; type: cell-based
Protocol: Growth of cell lines. Comparisons of different inhibitors with regard to suppression of human cancer cell growth were made by the University of Michigan Cancer Center in vitro Drug Evaluation Core Laboratory. MCF-7 breast carcinoma cells, HT-29 colon adenocarcinoma cells, H-460 lung large cell carcinoma cells, and 9L brain gliosarcoma cells were grown in RPMI 1640 medium with 5% fetal bovine serum, 2 mM glutamine, 50 units/ml of penicillin, […] of streptomycin, and 0.1 mg/ml of neomycin. UMSCC-10A head and neck squamous carcinoma cells were grown in minimal essential medium with Earle salts and the same supplements. Medium components were from Sigma Chemical Co. Cells were plated in 96-well microtiter plates (1000 cells/well for H-460 and 9L cells, and 2000 cells/well for the other lines), and the test compounds were added 1 day later. The stock inhibitor solutions, 2 mM in 2 mM BSA, were diluted with different amounts of additional 2 mM BSA, then each solution was diluted 500-fold with growth medium to obtain the final concentrations indicated in the Figures and Tables.
Five days after plating the H-460 and 9L cells, or 6 days for the other lines, cell growth was evaluated by staining the adhering cells with sulforhodamine B and measuring the absorbance at 520 nm (Skehan, P. et al., “New Colorimetric Cytotoxicity Assay for Anticancer-Drug Screening,” J. Natl. Cancer Inst., 82:1107-1112 (1990)). The absorbance of the treated cultures is reported as percent of that of control cultures, to provide an estimate of the fraction of the cells that survived, or of inhibition of growth rate.

Row | SMILES | % Inhibition at 80 μM [1] | Inhibition at 5 μM [1] | also measured
1 | CCCCCCCCCCCCCCCC(=O)NC(CN1CCOCC1)C(O)c1ccc(F)cc1 (mixture of isomers) [BML-113] | 60 ± 4.7^a % | – | –
2 | CCCCCCCCCCCCCCCC(=O)NC(CN(CC)CC)C(O)c1ccccc1 (mixture of isomers) [BML-114] | 31 ± 2.9^a % | – | activity against GlcCer synthase, in words [1]: little or no activity
3 | CCCCCCCCCCCCCCCC(=O)NC(CN1CCCCCC1)C(O)c1ccccc1 (mixture of isomers) [BML-116] | 28 ± 3.2^a % | – | –
4 | CCCCCCCCCC(=O)NC(CN1CCOCC1)C(O)c1ccc(F)cc1 (mixture of isomers) [BML-117] | 35 ± 0.6^b % | – | –
5 | CCCCCCCCCCCCCCCC(=O)NC(CN1CCN(C)CC1)C(O)c1ccccc1 (mixture of isomers) [BML-120] | 11 ± 3.0^c % | – | –
6 | CCCCCCCCCCCCCCCC(=O)NC(CN1CCCC(N(C)C)C1)C(O)c1ccccc1 (mixture of isomers) [BML-121] | 11 ± 0.4^c % | – | –
7 | CCCCCCCCCCCCCCCC(=O)NC(CN(C)CCO)C(O)c1ccccc1 (mixture of isomers) [BML-122] | 58 ± 1.6^d % | – | –
8 | CCCCCCCCCCCCCCCC(=O)NC(CN)C(O)c1ccccc1 (mixture of isomers) [BML-124] | −2 ± 1.6^d % | – | activity against GlcCer synthase, in words [1]: little or no activity
9 | CCCCCCCCCCCCCCCC(=O)NC(CN1CCOCC1)C(O)c1ccc(OC)cc1 (mixture of isomers) [BML-125] | – | 9 ± 3.0^e % | –
10 | CCCCCCCCCCCCCCCC(=O)NC(CN1CCCC1)C(O)c1ccc(OC)cc1 (mixture of isomers) [BML-126] | 60 ± 1.8^e % | 54 ± 0.3^f % | IC50 ([2]; 9L, rounded off to one digit, read-out: Inhibition of tumor cell growth in vitro, IC50): 2000 nM
11 | CCCCCCCCCCCCCC(=O)N[C@@H](C)[C@H](O)c1ccccc1 [D-erythro-N-myristoyl-2-amino-1-phenyl-1-propanol, reference compound] | – | – | inhibition of GlcCer synthase by nonionic ceramide-like compounds [1]: did not inhibit
12 | CCCCCCCCCCCCC/C=C/[C@H](O)[C@@H](CN1CCOCC1)NC(=O)CCCCCCCCCCCCCCC [IV-181A] | – | 12 ± 0.2^g % | –
13 | CCCCCCCCCCCCC/C=C/[C@@H](O)[C@@H](CN1CCOCC1)NC(=O)CCCCCCCCCCCCCCC [IV-206A] | – | 73 ± 1.5^g % | –
14 | CCCCCCCCCCCCC/C=C/[C@H](O)[C@@H](CN1CCCC1)NC(=O)CCCCCCCCCCCCCCC [IV-230A] | – | 19 ± 2.1^g % | –
15 | CCCCCCCCCCCCC/C=C/[C@@H](O)[C@H](CO)NC(C)=O [N-acetylsphingosine, reference compound] | – | – | inhibition of GlcCer synthase by nonionic ceramide-like compounds [1]: did not inhibit
16 | CCCCCCCCCCCCCCCC(=O)NC(CN1CCOCC1)C(O)c1ccccc1 (stereo not drawn) [PPMP, reference compound] | – | – | effectiveness on growth and survival of 9L cells, in words ([2]; FIG. 1): relatively weak effectiveness; Inhibition at 5 μM ([1]; 5 µM): 32 ± 1.8^e % and 32 ± 0.7^f %
